These results are taken from patent US6521405B1, “Cell-free replication system and uses thereof” (Cancer Research Campaign Technology Limited, priority 1997, dated 2003).

SMILES strings stand for the structures.

For the experiment, the system named is G1 NIH 3T3 nuclei. The experiment is described as follows: Cell-free DNA replication assay: G1 nuclei in HeLa S phase cytosol, biotin-dUTP incorporation, percentage of nuclei replicating (staining yellow). Format: biochemical, mouse. Particulars: about 50% yellow staining nuclei without inhibitor.

Method: Nuclear templates were prepared by Dounce homogenisation as described previously, but from NIH 3T3 cells. G0, quiescent, cells were prepared by allowing NIH 3T3 cells to proliferate until they reached confluence and arrested their proliferation. They were released from quiescence by trypsinization and replating at ¼ the cell density. Cells were harvested as described previously (Krude et al., 1997) at measured times after release from quiescence. The 3T3 cells treated this way pass through G1 and begin to enter S phase synchronously about 21 hrs later. Nuclei and cytosolic extract were produced by hypotonically swelling the cells, scrape harvesting and Dounce-homogenizing. […]
In vitro replication assays were performed in 50 μl reactions in 1.5 ml polypropylene tubes (Sarstedt or Eppendorf). […] Biotin-dUTP incorporation was detected by staining with fluorescein-streptavidin, whilst total DNA was visualized by propidium iodide. […] The percentage of nuclei replicating were calculated from many prints of confocal images. […]
The competence of G1 NIH 3T3 nuclei to replicate was determined by repeating the collection of G1 nuclei at different times following release from G0 arrest and incubating the nuclei with S phase cytosol in accordance with the procedures of Example 1. […]

With `CC[C@H](CO)Nc1nc(NCc2ccccc2)c2ncn(C(C)C)c2n1` [roscovitin], the “decrease of yellow staining nuclei” value is on record as around 5 fold (1 μM) and around 5 fold (1 mM).
